Among the data in the supplement of paper PMC10307832 are relative viability values, retold here.

What all share (test): relative viability (nuclei count vs DMSO), 5 days (fraction); higher = more cells survive
Compound in the test “Erlotinib + Luminespib”: C#Cc1cccc(Nc2ncnc3cc(OCCOC)c(OCCOC)cc23)c1 [Erlotinib] + CCNC(=O)c1noc(-c2cc(C(C)C)c(O)cc2O)c1-c1ccc(CN2CCOCC2)cc1 [Luminespib] (partner 0.01 µM)
A digest of the protocol:
(§1)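 Values are medians from duplicate plates. Each reflects relative viability, defined as the nuclei count of treated wells over that of vehicle wells. Lung cancer cell lines in 1536-well plates were pin-tool dosed one day after seeding with one drug alone or with a fixed anchor-drug dose plus five library-drug doses (not always all listed) in √10 steps, then fixed, stained and imaged at 4× after 5 days.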

Compound in the test “Erlotinib + Trametinib”: C#Cc1cccc(Nc2ncnc3cc(OCCOC)c(OCCOC)cc23)c1 [Erlotinib] + CC(=O)Nc1cccc(-n2c(=O)n(C3CC3)c(=O)c3c(Nc4ccc(I)cc4F)n(C)c(=O)c(C)c32)c1 [Trametinib] (partner 0.02 µM)
The method, boiled down:
as §1

Compound in the test “Erlotinib + Decitabine”: C#Cc1cccc(Nc2ncnc3cc(OCCOC)c(OCCOC)cc23)c1 [Erlotinib] + Nc1ncn([C@H]2C[C@H](O)[C@@H](CO)O2)c(=O)n1 [Decitabine] (partner 2 µM)
The method, boiled down:
as §1

Compound in the test “Erlotinib + OSI-027”: C#Cc1cccc(Nc2ncnc3cc(OCCOC)c(OCCOC)cc23)c1 [Erlotinib] + COc1cccc2cc(-c3nc([C@H]4CC[C@H](C(=O)O)CC4)n4ncnc(N)c34)[nH]c12 [OSI-027] (partner 0.5 µM)
The method, boiled down: as §1

Compound in the test “AT9283 + Tozasertib”: O=C(Nc1c[nH]nc1-c1nc2ccc(CN3CCOCC3)cc2[nH]1)NC1CC1 [AT9283] + Cc1cc(Nc2cc(N3CCN(C)CC3)nc(Sc3ccc(NC(=O)C4CC4)cc3)n2)n[nH]1 [Tozasertib] (partner 0.1 µM)
The method, boiled down: as §1

As to PC-14, the relative viability is 0.154 with Erlotinib + Luminespib (first compound 0.02 µM); 0.134 with Erlotinib + Luminespib (first compound 0.2 µM); 0.147 in the test with Erlotinib + Luminespib (first compound 0.6325 µM); 0.0981 with Erlotinib + Luminespib (first compound 2 µM); 0.185 in the test with Erlotinib + Trametinib (first compound 0.02 µM); 0.0801 with Erlotinib + Trametinib (first compound 0.2 µM). Moreover, the relative viability with Erlotinib + Trametinib (first compound 0.6325 µM) was 0.107; with Erlotinib + Trametinib (first compound 2 µM), 0.0898; with Erlotinib + Decitabine (first compound 0.02 µM), 0.194; with Erlotinib + Decitabine (first compound 0.2 µM), 0.142; in the test with Erlotinib + Decitabine (first compound 0.6325 µM) it was 0.151; in the test with Erlotinib + Decitabine (first compound 2 µM), 0.145. The relative viability amounted to 0.43 with Erlotinib + OSI-027 (first compound 0.02 µM); 0.0949 with Erlotinib + OSI-027 (first compound 0.2 µM); 0.136 with Erlotinib + OSI-027 (first compound 0.6325 µM); 0.0777 in the test with Erlotinib + OSI-027 (first compound 2 µM); 0.504 in the test with AT9283 + Tozasertib (first compound 0.003 µM); 0.387 in the test with AT9283 + Tozasertib (first compound 0.03 µM). Further, the values for the relative viability in the test with AT9283 + Tozasertib (first compound 0.09487 µM) and in the test with AT9283 + Tozasertib (first compound 0.3 µM) were 0.0959 and 0.0742, respectively.
With RERF-LC-KJ, the relative viability with Erlotinib + Luminespib (first compound 0.02 µM) is 1.32; with Erlotinib + Luminespib (first compound 0.2 µM) it was 0.993; with Erlotinib + Luminespib (first compound 0.6325 µM), 1.23; with Erlotinib + Trametinib (first compound 0.02 µM), 0.913; with Erlotinib + Trametinib (first compound 0.2 µM) it was 0.774; in the test with Erlotinib + Trametinib (first compound 0.6325 µM), 0.799. The relative viability in the test with Erlotinib + Trametinib (first compound 2 µM) came out at 0.613; in the test with Erlotinib + Decitabine (first compound 0.02 µM) it was 0.638; with Erlotinib + Decitabine (first compound 0.2 µM), 0.62; with Erlotinib + Decitabine (first compound 0.6325 µM), 0.649; with Erlotinib + Decitabine (first compound 2 µM), 0.582; with Erlotinib + OSI-027 (first compound 0.02 µM), 0.528. Moreover, the relative viability in the test with Erlotinib + OSI-027 (first compound 0.2 µM) was 0.417; in the test with Erlotinib + OSI-027 (first compound 0.6325 µM) it was 0.394; in the test with Erlotinib + OSI-027 (first compound 2 µM), 0.337; with AT9283 + Tozasertib (first compound 0.003 µM) it was 0.42; with AT9283 + Tozasertib (first compound 0.03 µM), 0.242; in the test with AT9283 + Tozasertib (first compound 0.09487 µM), 0.203. For the same cell line, the relative viability in the test with AT9283 + Tozasertib (first compound 0.3 µM) stood at 0.247.
As for SK-LU-1, the relative viability worked out at 0.21 in the test with Erlotinib + Luminespib (first compound 0.02 µM); 0.208 with Erlotinib + Luminespib (first compound 0.2 µM); 0.188 with Erlotinib + Luminespib (first compound 0.6325 µM); 0.202 with Erlotinib + Luminespib (first compound 2 µM); 0.495 with Erlotinib + Trametinib (first compound 0.02 µM); 0.566 with Erlotinib + Trametinib (first compound 0.6325 µM). Also, the relative viability in the test with Erlotinib + Trametinib (first compound 2 µM) was 0.434; in the test with Erlotinib + Decitabine (first compound 0.02 µM) it was 0.661; with Erlotinib + Decitabine (first compound 0.2 µM), 0.707; with Erlotinib + Decitabine (first compound 0.6325 µM), 0.634; in the test with Erlotinib + Decitabine (first compound 2 µM) it was 0.592; in the test with Erlotinib + OSI-027 (first compound 0.02 µM), 0.305. The relative viability with Erlotinib + OSI-027 (first compound 0.2 µM) is 0.369; in the test with Erlotinib + OSI-027 (first compound 0.6325 µM) it was 0.302; with Erlotinib + OSI-027 (first compound 2 µM), 0.253; in the test with AT9283 + Tozasertib (first compound 0.003 µM), 0.359; with AT9283 + Tozasertib (first compound 0.03 µM) it was 0.301; with AT9283 + Tozasertib (first compound 0.09487 µM) it was 0.253. In addition, the relative viability with AT9283 + Tozasertib (first compound 0.3 µM) was 0.267.
Turning to SK-MES-1, the relative viability was 0.77 with Erlotinib + Luminespib (first compound 0.02 µM); 0.453 in the test with Erlotinib + Luminespib (first compound 0.2 µM); 0.486 in the test with Erlotinib + Luminespib (first compound 0.6325 µM); 0.461 with Erlotinib + Luminespib (first compound 2 µM); 0.494 with Erlotinib + Trametinib (first compound 0.02 µM); 0.345 in the test with Erlotinib + Trametinib (first compound 0.2 µM). Besides, the relative viability is 0.347 in the test with Erlotinib + Trametinib (first compound 0.6325 µM); 0.312 with Erlotinib + Trametinib (first compound 2 µM); 0.393 in the test with Erlotinib + Decitabine (first compound 0.02 µM); 0.345 with Erlotinib + Decitabine (first compound 0.2 µM); 0.31 with Erlotinib + Decitabine (first compound 0.6325 µM); 0.27 with Erlotinib + Decitabine (first compound 2 µM). The relative viability with Erlotinib + OSI-027 (first compound 0.02 µM) was 0.615; with Erlotinib + OSI-027 (first compound 0.2 µM), 0.415; with Erlotinib + OSI-027 (first compound 0.6325 µM) it was 0.356; in the test with Erlotinib + OSI-027 (first compound 2 µM), 0.221; in the test with AT9283 + Tozasertib (first compound 0.003 µM), 1; in the test with AT9283 + Tozasertib (first compound 0.03 µM), 0.679. Besides, the relative viability with AT9283 + Tozasertib (first compound 0.09487 µM) turned out to be 0.254; with AT9283 + Tozasertib (first compound 0.3 µM), 0.125.
In the case of SW 900, the relative viability in the test with Erlotinib + Luminespib (first compound 0.02 µM) was found to be 0.201; in the test with Erlotinib + Luminespib (first compound 0.2 µM), 0.172; in the test with Erlotinib + Luminespib (first compound 0.6325 µM), 0.178; in the test with Erlotinib + Luminespib (first compound 2 µM) it was 0.173; in the test with Erlotinib + Trametinib (first compound 0.02 µM), 0.867; in the test with Erlotinib + Trametinib (first compound 0.2 µM) it was 0.761. The relative viability is 0.771 with Erlotinib + Trametinib (first compound 0.6325 µM); 0.631 in the test with Erlotinib + Trametinib (first compound 2 µM); 0.392 with Erlotinib + Decitabine (first compound 0.02 µM); 0.526 in the test with Erlotinib + Decitabine (first compound 0.2 µM); 0.429 with Erlotinib + Decitabine (first compound 0.6325 µM); 0.374 in the test with Erlotinib + Decitabine (first compound 2 µM). The relative viability with Erlotinib + OSI-027 (first compound 0.02 µM) was found to be 0.584; in the test with Erlotinib + OSI-027 (first compound 0.2 µM) it was 0.598; in the test with Erlotinib + OSI-027 (first compound 0.6325 µM) it was 0.642; in the test with Erlotinib + OSI-027 (first compound 2 µM), 0.374; in the test with AT9283 + Tozasertib (first compound 0.003 µM), 0.476; with AT9283 + Tozasertib (first compound 0.03 µM), 0.526. Further, the relative viability turned out to be 0.359 with AT9283 + Tozasertib (first compound 0.09487 µM) and 0.307 in the test with AT9283 + Tozasertib (first compound 0.3 µM).
For SW 1573, the relative viability with Erlotinib + Luminespib (first compound 0.02 µM) was 0.327; with Erlotinib + Luminespib (first compound 0.2 µM) it was 0.217; with Erlotinib + Luminespib (first compound 0.6325 µM) it was 0.214; in the test with Erlotinib + Luminespib (first compound 2 µM), 0.183; with Erlotinib + Trametinib (first compound 0.02 µM), 0.568; with Erlotinib + Trametinib (first compound 0.2 µM), 0.557. Further, the relative viability with Erlotinib + Trametinib (first compound 0.6325 µM) amounted to 0.526; with Erlotinib + Trametinib (first compound 2 µM) it was 0.474; with Erlotinib + Decitabine (first compound 0.2 µM), 0.511; with Erlotinib + Decitabine (first compound 0.6325 µM), 0.495; with Erlotinib + Decitabine (first compound 2 µM) it was 0.576; with Erlotinib + OSI-027 (first compound 0.02 µM), 0.651. Moreover, the relative viability came to 0.503 in the test with Erlotinib + OSI-027 (first compound 0.2 µM); 0.597 in the test with Erlotinib + OSI-027 (first compound 0.6325 µM); 0.44 with Erlotinib + OSI-027 (first compound 2 µM); 0.204 with AT9283 + Tozasertib (first compound 0.003 µM); 0.192 with AT9283 + Tozasertib (first compound 0.03 µM); 0.211 with AT9283 + Tozasertib (first compound 0.09487 µM). In addition, in the test with AT9283 + Tozasertib (first compound 0.3 µM), the relative viability was determined as 0.112.
Regarding UMC-11, the relative viability in the test with Erlotinib + Luminespib (first compound 0.02 µM) came out at 1.05; with Erlotinib + Luminespib (first compound 0.2 µM), 0.93; in the test with Erlotinib + Luminespib (first compound 0.6325 µM), 1.32; with Erlotinib + Luminespib (first compound 2 µM), 1.11; with Erlotinib + Trametinib (first compound 0.02 µM), 0.738; with Erlotinib + Trametinib (first compound 0.2 µM), 0.637. Moreover, the relative viability is 0.916 with Erlotinib + Trametinib (first compound 0.6325 µM); 0.71 with Erlotinib + Trametinib (first compound 2 µM); 0.652 in the test with Erlotinib + Decitabine (first compound 0.02 µM); 0.597 with Erlotinib + Decitabine (first compound 0.2 µM); 0.636 with Erlotinib + Decitabine (first compound 0.6325 µM); 0.567 with Erlotinib + Decitabine (first compound 2 µM). Besides, the relative viability with Erlotinib + OSI-027 (first compound 0.2 µM) was 0.412; with Erlotinib + OSI-027 (first compound 0.6325 µM), 0.492; with Erlotinib + OSI-027 (first compound 2 µM), 0.424; in the test with AT9283 + Tozasertib (first compound 0.003 µM), 0.19; with AT9283 + Tozasertib (first compound 0.03 µM) it was 0.221; with AT9283 + Tozasertib (first compound 0.09487 µM) it was 0.207. Also, the relative viability with AT9283 + Tozasertib (first compound 0.3 µM) amounted to 0.21.
